Laboratory results taken from PMC12467033, “Exploring the Inhibitory Potential of Six Porphyrin Compounds Against α-Amylase and α-Glucosidase Linked to Diabetes” (Biomolecules, 2025).
Where two headings read alike, the source gives them in different places.

What was measured:
α-amylase [1] = biological target: T1, α-amylase (Sus scrofa, UniProt P00690); assay: FTIR secondary structure analysis of α-AMY complexes; conditions: enzyme–porphyrin molar ratio 1:2, amide I band
T1 sequence (P00690 16-511): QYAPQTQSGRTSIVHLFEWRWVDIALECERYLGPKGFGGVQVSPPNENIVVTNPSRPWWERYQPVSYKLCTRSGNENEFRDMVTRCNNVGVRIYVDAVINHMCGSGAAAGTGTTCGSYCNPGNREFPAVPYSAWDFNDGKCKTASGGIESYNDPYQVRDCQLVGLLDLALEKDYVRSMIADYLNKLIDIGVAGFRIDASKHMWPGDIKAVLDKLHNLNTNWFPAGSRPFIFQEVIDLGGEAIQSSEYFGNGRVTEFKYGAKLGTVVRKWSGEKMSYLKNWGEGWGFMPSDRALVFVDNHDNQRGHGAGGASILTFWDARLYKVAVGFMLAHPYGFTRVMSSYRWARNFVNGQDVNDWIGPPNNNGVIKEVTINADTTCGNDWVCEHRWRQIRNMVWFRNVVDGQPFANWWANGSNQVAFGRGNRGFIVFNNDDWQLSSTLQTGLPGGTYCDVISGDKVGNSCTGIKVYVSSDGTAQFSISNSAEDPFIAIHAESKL
Text: A molar ratio of 1:2 (α-amylase/α-glucosidase)–porphyrin solution was placed in a cryocentrifugal concentrator and the dried solid sample was mixed with dry KBr and measured using a Nicolet IS-50 FTIR Spectrometer (ThermoFisher, Waltham, MA, USA) with a scanning range of 4000–400 cm^−1 and a resolution of 4 cm^−1. The overlapping peaks in the amide I band (1700–1600 cm^−1) were further analyzed into multiple feature sub-peaks, and quantitative analysis of the relative content of various secondary structures in proteins using curve fitting methods was performed.

α-amylase [2] = biological target: T1, α-amylase; assay: Fluorescence quenching, binding and thermodynamics with α-amylase
Text: In the α-amylase experiment, a series of porphyrins and amylase (200 U/L) were mixed in a volume ratio of 1:1.
(§1) The Stern–Volmer equation [35] was adopted to determine the quenching mechanisms between six porphyrin compounds and both enzymes in the experimental group, with Formula (6):(6) F0/F=1+Ksv[Q]=1+Kqτ0[Q]
(§2) The Stern–Volmer equation was adapted based on experimental data to more accurately characterize the quenching behavior [36], with Formula (7):(7) F0/F=e^Ksv[Q]=e^Kqτ0[Q]
(§3) In the formula, the fluorescence quenching ratio was calculated as F0/F, where F0 corresponds to the emission intensity of pure α-amylase solution (control) and F denotes the intensity measured after the incremental addition of porphyrin ligands. KSV and Kq denote the Stern–Volmer quenching constant and the bimolecular quenching rate constant, respectively, τ0 (10^−8 s) is the average fluorescence lifetime of the fluorophore in the absence of quencher, and [Q] indicates the concentration of porphyrin compounds.
(§4) Due to the presence of an internal filtration effect, a decrease in the fluorescence intensity of the system may occur. Therefore, all fluorescence data were corrected using Formula (8) to eliminate the internal filtration effect.(8) Fcor=Fobse^(Aex+Aem)/2
(§5) The evaluation of the interaction forces between porphyrin compounds and the two enzymes can be achieved by calculating thermodynamic parameters. When both ΔH^0 and ΔS^0 are positive, the predominant interaction force is hydrophobic. When both ΔH^0 and ΔS^0 are negative, the main forces are hydrogen bonding and van der Waals forces. When ΔH^0 < 0 and ΔS^0 > 0, the primary interaction is electrostatic attraction.
(§6) The thermodynamic parameters were calculated using Formulas (9) and (10), and then the Van’t Hoff plot for the interactions between the porphyrin compounds and the two enzymes was generated by plotting lnKa on the Y-axis versus 1/T on the X-axis.(9) lnKa=−ΔH^0/RT+ΔS^0/R (10) ΔG^0=ΔH^0−TΔS^0=−RTlnKa

α-glucosidase [3] = biological target: T2, α-glucosidase (Saccharomyces cerevisiae, UniProt P53341); assay: Fluorescence quenching, binding and thermodynamics with α-glucosidase
T2 sequence (P53341 whole entry): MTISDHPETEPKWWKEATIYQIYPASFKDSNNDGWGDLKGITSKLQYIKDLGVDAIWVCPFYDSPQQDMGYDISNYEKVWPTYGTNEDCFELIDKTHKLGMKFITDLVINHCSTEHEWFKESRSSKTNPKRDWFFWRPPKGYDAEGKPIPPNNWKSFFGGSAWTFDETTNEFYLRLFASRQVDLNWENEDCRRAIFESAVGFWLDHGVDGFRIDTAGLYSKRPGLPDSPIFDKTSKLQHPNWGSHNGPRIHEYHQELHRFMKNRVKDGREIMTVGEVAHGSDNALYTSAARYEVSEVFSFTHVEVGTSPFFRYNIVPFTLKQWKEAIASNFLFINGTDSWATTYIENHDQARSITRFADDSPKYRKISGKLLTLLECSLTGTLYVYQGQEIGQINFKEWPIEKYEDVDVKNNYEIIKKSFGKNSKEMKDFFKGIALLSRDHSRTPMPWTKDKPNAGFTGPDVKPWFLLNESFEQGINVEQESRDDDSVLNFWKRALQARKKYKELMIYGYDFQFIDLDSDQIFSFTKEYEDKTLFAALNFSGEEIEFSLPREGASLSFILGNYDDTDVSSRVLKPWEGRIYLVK
Method: In the α-amylase experiment, a series of porphyrins and amylase (200 U/L) were mixed in a volume ratio of 1:1. In the α-glucosidase experiment, the glucosidase concentration was 400 U/L, mixed in a volume ratio of 1:1; the samples were maintained at three different temperatures (298, 304, and 310 K) for 30 min, with excitation at 280 nm and emission scanning from 300 to 500 nm.
as §1, §2, §3, §4, §5, §6

α-glucosidase [4] = biological target: T2, α-glucosidase; format: biochemical
Text: In the experiment, the concentration of the fixed substrate Gal-G2-α-CNP/pNPG solution was 5 mmol/L, and the concentrations of the two enzymes (100, 200, 300, 400 U/L) were used to determine the effect of different concentrations of porphyrins on enzyme activity. The concentration of the enzyme was 200 U/L, and the concentration of the substrate Gal-G2-α-CNP/pNPG solution (2.5, 5, 7.5, 10 mmol/L) was used to determine the effect of different concentrations of porphyrins on the enzyme-catalyzed substrate activity.
Upon identifying the type of inhibition, the kinetic equations vary for different inhibition types.
In the formula, v, Vmax, Km, Ki, and Kis represent the reaction rate, maximum reaction rate, Michaelis constant, and free enzyme inhibition constant, respectively, and the binding enzyme inhibition constant. [S] denotes the substrate concentration. [I] denotes the inhibitor concentration.

α-amylase [5] = biological target: T1, α-amylase; assay: Three-dimensional fluorescence spectroscopy of α-amylase complexes; conditions: 298 K; TAPP 2.5, THPP 10, TCPP 10, Fe–TCPP 12.5, Ni–TCPP 17.5, Cu–TCPP 10 μg/mL

Compound: Oc1ccc(-c2c3nc(c(-c4ccc(O)cc4)c4ccc([nH]4)c(-c4ccc(O)cc4)c4nc(c(-c5ccc(O)cc5)c5ccc2[nH]5)C=C4)C=C3)cc1 [THPP]
- Random Coil (α-amylase [1]): 17.71 ± 0.07%
- α-Helix (α-amylase [1]): 22.24 ± 0.06%
- β-Antiparallel (α-amylase [1]): 13.37 ± 0.03%
- β-Sheet (α-amylase [1]): 12.92 ± 0.05%
- β-Turn (α-amylase [1]): 33.76 ± 0.08%
- quenching mechanism of α-amylase fluorescence (α-amylase [2]; Stern–Volmer plots, 298–310 K): pure static quenching
- Kq (α-amylase [2]; T 298 K): 8.90 ± 0.06 ×10^12 L/mol/s
- Ksv (α-amylase [2]; T 298 K): 8.90 ± 0.06 ×10^4 L/mol
- n (number of binding sites) (α-amylase [2]; T 298 K): 1.19
- ΔG^0 (α-amylase [2]; T 298 K): -7.844 ± 0.019 kcal/mol
- Kq (α-amylase [2]; T 304 K): 8.20 ± 0.02 ×10^12 L/mol/s
- Ksv (α-amylase [2]; T 304 K): 8.20 ± 0.02 ×10^4 L/mol
- n (number of binding sites) (α-amylase [2]; T 304 K): 1.16
- ΔG^0 (α-amylase [2]; T 304 K): -7.737 ± 0.019 kcal/mol
- Kq (α-amylase [2]; T 310 K): 7.64 ± 0.07 ×10^12 L/mol/s
- Ksv (α-amylase [2]; T 310 K): 7.64 ± 0.07 ×10^4 L/mol
- n (number of binding sites) (α-amylase [2]; T 310 K): 1.12
- ΔG^0 (α-amylase [2]; T 310 K): -7.646 ± 0.017 kcal/mol
- ΔH^0 (α-amylase [2]; Van’t Hoff, 298–310 K): -12.73 ± 0.012 kcal/mol
- ΔS^0 (α-amylase [2]; Van’t Hoff, 298–310 K): −68.61 ± 0.06 J/mol/k
- binding constants K (α-glucosidase [3]; 310 K): (3.39 ± 0.03) × 10^5 L·mol^−1
- quenching mechanism of α-glucosidase fluorescence (α-glucosidase [3]; Stern–Volmer plots, 298–310 K): static quenching
- Kq (α-glucosidase [3]; T 298 K): 7.40 ± 0.06 ×10^12 L/mol/s
- Ksv (α-glucosidase [3]; T 298 K): 7.40 ± 0.06 ×10^4 L/mol
- n (number of binding sites) (α-glucosidase [3]; T 298 K): 1.29
- ΔG^0 (α-glucosidase [3]; T 298 K): -8.439 ± 0.0239 kcal/mol
- Kq (α-glucosidase [3]; T 304 K): 6.97 ± 0.06 ×10^12 L/mol/s
- Ksv (α-glucosidase [3]; T 304 K): 6.97 ± 0.06 ×10^4 L/mol
- n (number of binding sites) (α-glucosidase [3]; T 304 K): 1.23
- ΔG^0 (α-glucosidase [3]; T 304 K): -8.212 ± 0.022 kcal/mol
- Kq (α-glucosidase [3]; T 310 K): 6.69 ± 0.04 ×10^12 L/mol/s
- Ksv (α-glucosidase [3]; T 310 K): 6.69 ± 0.04 ×10^4 L/mol
- n (number of binding sites) (α-glucosidase [3]; T 310 K): 1.16
- ΔG^0 (α-glucosidase [3]; T 310 K): -7.844 ± 0.014 kcal/mol
- ΔH^0 (α-glucosidase [3]; Van’t Hoff, 298–310 K): -23.22 ± 0.022 kcal/mol
- ΔS^0 (α-glucosidase [3]; Van’t Hoff, 298–310 K): −207.25 ± 0.13 J/mol/k
- Vmax (α-glucosidase [4]; C 1 μg/mL): 0.1528 ± 0.0020 ΔOD/min
- Vmax (α-glucosidase [4]; C 2.5 μg/mL): 0.1013 ± 0.0035 ΔOD/min
- Vmax (α-glucosidase [4]; C 5 μg/mL): 0.0649 ± 0.0019 ΔOD/min
- Vmax (α-glucosidase [4]; C 7.5 μg/mL): 0.0489 ± 0.0009 ΔOD/min
- Vmax (α-glucosidase [4]; C 10 μg/mL): 0.0377 ± 0.0009 ΔOD/min
- type of inhibition of α-glucosidase (α-glucosidase [4]; Lineweaver–Burk plots): non-competitive inhibition
- reversibility of inhibition of α-glucosidase (α-glucosidase [4]; enzyme 100–400 U/L, substrate 5 mmol/L): reversible inhibition
- Peak 1 Fluorescence Intensity (α-amylase [5]): 297.5
- Peak 2 Fluorescence Intensity (α-amylase [5]): 32.69
